Experiments:
[1] = Volume of distribution at steady state in monkey after iv administration; type: ADME, organism-based; conditions: macaca, in vivo, read-out: Vdss
[2] = Volume of distribution at steady state in rat after iv administration; type: ADME, organism-based; conditions: in vivo
[3] = Clearance in rat after iv administration; type: ADME, organism-based; conditions: in vivo
[4] = Clearance in monkey after iv administration; type: ADME, organism-based; conditions: macaca, in vivo
[5] = Clearance in dog after iv administration; type: ADME, organism-based, Canis lupus familiaris; conditions: in vivo
[6] = Volume of distribution at steady state in dog after iv administration; type: ADME, organism-based, Canis lupus familiaris; conditions: in vivo, read-out: Vdss
[7] = Clearance in human after iv administration; type: ADME, organism-based; conditions: in vivo
[8] = Volume of distribution at steady state in human after iv administration; type: ADME, organism-based; conditions: in vivo, read-out: Vdss

SMILES: CO/N=C(\C(=O)N[C@@H]1C(=O)N2C(C(=O)O)=CCS[C@H]12)c1csc(N)n1 [CEFTIZOXIME]
- Vd [1]: 0.12 L/kg
- Vdss [2]: 0.18 L/kg
- clearance [3]: 19 mL/min/kg
- clearance [4]: 5.9 mL/min/kg
- clearance [5]: 3.3 mL/min/kg
- Vd [6]: 0.1 L/kg
- clearance [7]: 1.8 mL/min/kg
- Vd [8]: 0.23 L/kg

SMILES: CO/N=C(\C(=O)N[C@@H]1C(=O)N2C(C(=O)O)=C(CSc3nc(=O)c(=O)[nH]n3C)CS[C@H]12)c1csc(N)n1 [CEFTRIAXONE]
- Vd [1]: 0.11 L/kg
- Vdss [2]: 0.18 L/kg
- clearance [3]: 4 mL/min/kg
- clearance [4]: 0.45 mL/min/kg
- clearance [5]: 4 mL/min/kg
- Vd [6]: 0.24 L/kg
- clearance [7]: 0.24 mL/min/kg
- Vd [8]: 0.16 L/kg

SMILES: CN(C)CCCC1(c2ccc(F)cc2)OCc2cc(C#N)ccc21 (stereo not drawn) [CITALOPRAM]
- Vd [1]: 10 L/kg
- Vdss [2]: 21 L/kg
- clearance [3]: 82 mL/min/kg
- clearance [4]: 39 mL/min/kg
- clearance [5]: 14 mL/min/kg
- Vd [6]: 10 L/kg
- clearance [7]: 5 mL/min/kg
- Vd [8]: 14 L/kg

SMILES: O=C1CN=C(c2ccccc2Cl)c2cc([N+](=O)[O-])ccc2N1 [CLONAZEPAM]
- Vd [1]: 6.8 L/kg
- Vdss [2]: 3 L/kg
- clearance [3]: 21 mL/min/kg
- clearance [4]: 14 mL/min/kg
- clearance [5]: 11 mL/min/kg
- Vd [6]: 1.6 L/kg
- clearance [7]: 1.6 mL/min/kg
- Vd [8]: 5.5 L/kg

SMILES: O=c1ccc2ccccc2o1 [COUMARIN]
- Vd [1]: 4.5 L/kg
- Vdss [2]: 1.3 L/kg
- clearance [3]: 20 mL/min/kg
- clearance [4]: 34 mL/min/kg
- clearance [5]: 22 mL/min/kg
- Vd [6]: 6.5 L/kg
- clearance [7]: 17 mL/min/kg
- Vd [8]: 2.2 L/kg

SMILES: O=P1(N(CCCl)CCCl)NCCCO1 (stereo not drawn) [CYCLOPHOSPHAMIDE ANHYDROUS]
- Vd [1]: 1.3 L/kg
- Vdss [2]: 0.8 L/kg
- clearance [3]: 12 mL/min/kg
- clearance [4]: 20 mL/min/kg
- clearance [5]: 20 mL/min/kg
- Vd [6]: 0.7 L/kg
- clearance [7]: 2.6 mL/min/kg
- Vd [8]: 0.7 L/kg

SMILES: O=C(O)Cc1ccccc1Nc1c(Cl)cccc1Cl [DICLOFENAC]
- Vd [1]: 0.17 L/kg
- Vdss [2]: 0.75 L/kg
- clearance [3]: 9.4 mL/min/kg
- clearance [4]: 8.7 mL/min/kg
- clearance [5]: 1.6 mL/min/kg
- Vd [6]: 0.23 L/kg
- clearance [7]: 4.2 mL/min/kg
- Vd [8]: 0.17 L/kg

SMILES: O=c1[nH]cnc2c1ncn2[C@H]1CC[C@@H](CO)O1 [DIDANOSINE]
- Vd [1]: 0.92 L/kg
- Vdss [2]: 0.99 L/kg
- clearance [3]: 66 mL/min/kg
- clearance [4]: 12 mL/min/kg
- clearance [5]: 23 mL/min/kg
- Vd [6]: 0.95 L/kg
- clearance [7]: 14 mL/min/kg
- Vd [8]: 0.81 L/kg

SMILES: CC(C)N(CCC(C(N)=O)(c1ccccc1)c1ccccn1)C(C)C (stereo not drawn) [DISOPYRAMIDE]
- Vd [1]: 2 L/kg
- Vdss [2]: 6.2 L/kg
- clearance [3]: 34 mL/min/kg
- clearance [4]: 19 mL/min/kg
- clearance [5]: 29 mL/min/kg
- Vd [6]: 2.3 L/kg
- clearance [7]: 2.4 mL/min/kg
- Vd [8]: 0.78 L/kg

SMILES: COc1cccc2c1C(=O)c1c(O)c3c(c(O)c1C2=O)C[C@@](O)(C(=O)CO)C[C@@H]3O[C@H]1C[C@H](N)[C@H](O)[C@H](C)O1 [DOXORUBICIN]
- Vd [1]: 24 L/kg
- Vdss [2]: 25 L/kg
- clearance [3]: 34 mL/min/kg
- clearance [4]: 28 mL/min/kg
- clearance [5]: 17 mL/min/kg
- Vd [6]: 44 L/kg
- clearance [7]: 17 mL/min/kg
- Vd [8]: 25 L/kg

SMILES: CC[C@H]1OC(=O)[C@H](C)[C@@H](O[C@H]2C[C@@](C)(OC)[C@@H](O)[C@H](C)O2)[C@H](C)[C@@H](O[C@@H]2O[C@H](C)C[C@H](N(C)C)[C@H]2O)[C@](C)(O)C[C@@H](C)C(=O)[C@H](C)[C@@H](O)[C@]1(C)O [ERYTHROMYCIN]
- Vd [1]: 0.93 L/kg
- Vdss [2]: 9.3 L/kg
- clearance [3]: 73 mL/min/kg
- clearance [4]: 14 mL/min/kg
- clearance [5]: 21 mL/min/kg
- Vd [6]: 2.7 L/kg
- clearance [7]: 7 mL/min/kg
- Vd [8]: 0.89 L/kg

SMILES: C#C[C@]1(O)CC[C@H]2[C@@H]3CCc4cc(O)ccc4[C@H]3CC[C@@]21C [ETHINYL ESTRADIOL]
- Vd [1]: 6 L/kg
- Vdss [2]: 73 L/kg
- clearance [3]: 64 mL/min/kg
- clearance [4]: 17 mL/min/kg
- clearance [5]: 25 mL/min/kg
- Vd [6]: 17 L/kg
- clearance [7]: 5 mL/min/kg
- Vd [8]: 18 L/kg

SMILES: CCC1(C)CC(=O)NC1=O (stereo not drawn) [ETHOSUXIMIDE]
- Vd [1]: 0.82 L/kg
- Vdss [2]: 0.68 L/kg
- clearance [3]: 3.1 mL/min/kg
- clearance [4]: 0.33 mL/min/kg
- clearance [5]: 0.42 mL/min/kg
- Vd [6]: 0.59 L/kg
- clearance [7]: 0.15 mL/min/kg
- Vd [8]: 0.63 L/kg

SMILES: CN1CCN(c2c(F)cc3c(=O)c(C(=O)O)cn(CCF)c3c2F)CC1 [FLEROXACIN]
- Vd [1]: 1.2 L/kg
- Vdss [2]: 1.3 L/kg
- clearance [3]: 5.7 mL/min/kg
- clearance [4]: 4 mL/min/kg
- clearance [5]: 1.6 mL/min/kg
- Vd [6]: 1.3 L/kg
- clearance [7]: 2.4 mL/min/kg
- Vd [8]: 1.5 L/kg

SMILES: NCC1(CC(=O)O)CCCCC1 [GABAPENTIN]
- Vd [1]: 0.68 L/kg
- Vdss [2]: 1.2 L/kg
- clearance [3]: 9.5 mL/min/kg
- clearance [4]: 2.6 mL/min/kg
- clearance [5]: 2.3 mL/min/kg
- Vd [6]: 0.16 L/kg
- clearance [7]: 1.8 mL/min/kg
- Vd [8]: 0.82 L/kg

SMILES: NC(=O)c1cc[n+](COC[n+]2ccccc2/C=N/O)cc1 [HI-6]
- Vd [1]: 0.34 L/kg
- Vdss [2]: 0.3 L/kg
- clearance [3]: 9.8 mL/min/kg
- clearance [4]: 8.6 mL/min/kg
- clearance [5]: 3.7 mL/min/kg
- Vd [6]: 0.26 L/kg
- clearance [7]: 3.2 mL/min/kg
- Vd [8]: 0.39 L/kg

Source: ChEMBL document CHEMBL1614629, “Extrapolation of human pharmacokinetic parameters from rat, dog, and monkey data: Molecular properties associated with extrapolative success or failure” (J Pharm Sci, 2005)
